From patent US10598672B2, “Methods and compositions for diagnosing and treating loss and/or distortion of taste or smell” (Cyrano Therapeutics, Inc., priority 2014, dated 2020)
Marks after values point to notes of the source that are not given here.

System: patients with hyposmia
Test: Olfactometry: DT, RT, ME and H for pyridine, nitrobenzene, thiophene, amyl acetate
Assay type: in vivo, human
Details: for AMYL ACETATE DT, detection threshold / AMYL ACETATE H, hedonic value / AMYL ACETATE ME, magnitude estimation / AMYL ACETATE RT, recognition threshold / NI[…], detection threshold / NI[…], hedonic value / NI[…], magnitude estimation / NI[…], recognition threshold / PYRIDINE DT, detection threshold / PYRIDINE H, hedonic value / PYRIDINE ME, magnitude estimation / PYRIDINE RT, recognition threshold / THIOPHENE DT, detection threshold / THIOPHENE H, hedonic value / THIOPHENE ME, magnitude estimation / THIOPHENE RT, recognition threshold: hyposmic, oral theophylline, Mean ± SEM
[1] = ALL PATIENTS (31) treated with oral theophylline
[2] = ALLERGIC RHINITIS (11) treated with oral theophylline
[3] = CONGENITAL (9) treated with oral theophylline
[4] = PIHH (10) treated with oral theophylline
[5] = POST GENERAL ANESTHESIA (1) treated with oral theophylline
[6] = after intranasal treatment vs before treatment or after oral treatment
[7] = after oral treatment vs before treatment, 10 patients
[8] = hyposmic patients TREATED (31) with oral theophylline
[9] = oral theophylline dose 200 mg (6 patients)

Cn1c(=O)c2[nH]cnc2n(C)c1=O [theophylline]
SMELL IMPROVEMENT Patient (%) [1]: 61% | SMELL IMPROVEMENT Patient Number [1]: 19 | SMELL IMPROVEMENT Patient (%) [2]: 45% | SMELL IMPROVEMENT Patient Number [2]: 5 | SMELL IMPROVEMENT Patient (%) [3]: 56% | SMELL IMPROVEMENT Patient Number [3]: 5 | SMELL IMPROVEMENT Patient (%) [4]: 80% | SMELL IMPROVEMENT Patient Number [4]: 8 | SMELL IMPROVEMENT Patient (%) [5]: 100% | SMELL IMPROVEMENT Patient Number [5]: 1 | AMYL ACETATE DT, detection threshold (TREATED MEN (19)): 4.7 ± 0.9^b BU | AMYL ACETATE H, hedonic value (TREATED MEN (19)): 3 ± 3% | AMYL ACETATE ME, magnitude estimation (TREATED MEN (19)): 17 ± 5% | AMYL ACETATE RT, recognition threshold (TREATED MEN (19)): 5.3 ± 0.9^a BU | NI[…], detection threshold (TREATED MEN (19)): 4.8 ± 1.1^b BU | NI[…], hedonic value (TREATED MEN (19)): 6 ± 5% | NI[…], magnitude estimation (TREATED MEN (19)): 19 ± 5% | NI[…], recognition threshold (TREATED MEN (19)): 5.2 ± 1.2^b BU | PYRIDINE DT, detection threshold (TREATED MEN (19)): 4.8 ± 0.9^a BU | PYRIDINE H, hedonic value (TREATED MEN (19)): −30 ± 7% | PYRIDINE ME, magnitude estimation (TREATED MEN (19)): 36 ± 7% | PYRIDINE RT, recognition threshold (TREATED MEN (19)): 5.6 ± 1.0^c BU | THIOPHENE DT, detection threshold (TREATED MEN (19)): 5.6 ± 0.9^b BU | THIOPHENE H, hedonic value (TREATED MEN (19)): −7 ± 3% | THIOPHENE ME, magnitude estimation (TREATED MEN (19)): 15 ± 5% | THIOPHENE RT, recognition threshold (TREATED MEN (19)): 7.6 ± 1.0 BU | AMYL ACETATE DT, detection threshold (TREATED WOMEN (12)): 7.4 ± 1.1 BU | AMYL ACETATE H, hedonic value (TREATED WOMEN (12)): 2 ± 6% | AMYL ACETATE ME, magnitude estimation (TREATED WOMEN (12)): 22 ± 7% | AMYL ACETATE RT, recognition threshold (TREATED WOMEN (12)): 8.7 ± 1.0 BU | NI[…], detection threshold (TREATED WOMEN (12)): 6.8 ± 1.4 BU | NI[…], hedonic value (TREATED WOMEN (12)): 8 ± 7% | NI[…], magnitude estimation (TREATED WOMEN (12)): 25 ± 8% | NI[…], recognition threshold (TREATED WOMEN (12)): 7.3 ± 1.1 BU | PYRIDINE DT, detection threshold (TREATED WOMEN (12)): 7.1 ± 0.9 BU | PYRIDINE H, hedonic value (TREATED WOMEN (12)): −38 ± 8% | PYRIDINE ME, magnitude estimation (TREATED WOMEN (12)): 42 ± 9% | PYRIDINE RT, recognition threshold (TREATED WOMEN (12)): 8.0 ± 1.0 BU | THIOPHENE DT, detection threshold (TREATED WOMEN (12)): 7.1 ± 1.2 BU | THIOPHENE H, hedonic value (TREATED WOMEN (12)): −19 ± 6% | THIOPHENE ME, magnitude estimation (TREATED WOMEN (12)): 30 ± 7% | THIOPHENE RT, recognition threshold (TREATED WOMEN (12)): 8.1 ± 1.3 BU | DTs and RTs for each odor [6]: lower (more sensitive) | Hedonic responses to nitrobenzene [6]: more positive (more pleasant) | Hedonic responses to thiophene [6]: more negative (more unpleasant) | Magnitude estimations for each odor [6]: higher (more intense) | DTs and RTs for all odorants [7]: decreased (more sensitive) | HRs for all odorants [7]: increased | MEs for all odorants [7]: increased (more sensitive) | AMYL ACETATE DT [8]: 1.2 ± 0.6^d,a2 BU | AMYL ACETATE H [8]: 3 ± 4% | AMYL ACETATE ME [8]: 17 ± 5^a2% | AMYL ACETATE RT [8]: 5.5 ± 0.8^d BU | PYRIDINE DT [8]: 5.7 ± 0.7^c,b2 BU | PYRIDINE H [8]: −32 ± 6% | PYRIDINE ME [8]: 40 ± 6% | PYRIDINE RT [8]: 6.7 ± 0.8^d BU | THEOPHENE DT [8]: 5.1 ± 0.7^e,a2 BU | THEOPHENE H [8]: −9 ± 4^a2% | THEOPHENE ME [8]: 18 ± 4^a2% | THEOPHENE RT [8]: 5.5 ± 0.8^e,e2 BU | patients who exhibited improved smell function (hyposmic patients after oral treatment (text of Example 9)): 60% | AMYL ACETATE DT [9]: 8.2 ± 2.1 BU | AMYL ACETATE H [9]: 8 ± 8% | AMYL ACETATE ME [9]: 12 ± 11%
